The numbers were not newly measured in EP1694724B1, “pH SENSITIVE POLYMER AND PROCESS FOR PREPARATION THEREOF” (Council of Scientific and Industrial Research, priority 2003, dated 2005), which cites them from elsewhere.

The conditions of this data set: humans.

Turning to `CO/N=C(\C(=O)N[C@@H]1C(=O)N2C(C(=O)OC(C)OC(C)=O)=C(COC(N)=O)CS[C@H]12)c1ccco1` (stereo partly shown) [Cefuroxime axetil, cefuroxime axetil], the bioavailability is recorded as 32-50%.
